Values after ≈ are worked out from the molar mass of the structure shown. Like-named read-outs stand apart in the source and are kept apart here.

This is an account of results in patent US20250049819A1, “METHODS FOR TREATING AND PREVENTING C. DIFFICILE INFECTION” (Paratek Pharmaceuticals, Inc., priority 2016, published 2025).

Data set [1] deals with C. difficile PCR ribotype 027 strain 210. Nature of the data set: In vitro human gut model, C. difficile germination, proliferation and toxin production (Example 3). It counts as cell-based. Particulars: 430 mg/L once daily for 7 days. An excerpt:
An in vitro gut model was used to study the effects of omadacycline instillation on both normal microflora populations and C. difficile. This gut model has been validated against gut contents from sudden death victims and provides a very close simulation of bacterial activities and composition in different areas of the hindgut (Macfarlane et al., Microb. Ecol. 35, 180-7, 1998). The model consists of three vessels aligned in series, and top-fed with a complex growth medium. All three vessels are continuously stirred, anaerobically maintained at 37° C. and regulated to reflect in vivo differences, including pH, from proximal to distal colon. The three anaerobic fermentation vessels are maintained at increasing alkalinity (from pH 5.5±0.2 for vessel 1; pH 6.2±0.2 for vessel 2; and pH 6.8±0.2 for vessel 3). The increasing alkalinity in combination with the nutrient limited conditions are designed to simulate the human gut from the proximal to the distal colon. […] At this stage, dietary ingredients, prebiotics, pathogens and/or antibiotics may be added, and the bacterial populations monitored. Specific components of the gut flora and relevant pathogens may be closely monitored and their behavior analyzed. […]
Gut microbiota bacterial populations and C. difficile total viable counts and spore counts were enumerated daily by culture on selective and non-selective agars. C. difficile populations were monitored in all three vessels, and all other bacterial groups (total obligate anaerobes, total facultative anaerobes, lactose fermenting enterobacteriaceae, enterococci, total clostridia, lactobacilli, bifidobacteria, B. fragilis group) were monitored in vessels 2 and 3 only. […] C. difficile total viable counts and spores counts were monitored using viable counting and a differential alcohol shock viable count on selective agars.
From day 14 onwards C. difficile cytotoxin was measured using a quantitative VERO cell cytotoxicity assay. […] Concentrations of omadacyline were measured by large-plate bioassay using Wilkins Chalgren agar with Kocuria rhizophila as the indicator organism.

Data set [2] can be described thus: Elimination of an oral dose via the biliary/fecal pathway. It counts as in vivo.
Data set [3] has as its system C. difficile strain ATCC 43596. Nature of the data set: MIC90 against the infection model strain. It counts as cell-based. Particulars: Clostridioides difficile, ATCC43596.
Data set [4] deals with C. difficile strains (N = 27). Nature of the data set: MIC by broth microdilution against C. difficile clinical isolates. It counts as cell-based. Particulars: Clostridioides difficile, 27 isolates. On the procedure:
The activity of omadacycline was tested in vitro against 27 clinical isolates of C. difficile. […] The experiments were carried out using broth and agar microdilution methods according to Clinical and Laboratory Standards Institute (CLSI) guidelines. […] Each test was run in duplicate.
Background: Dilution methods test growth across graded concentrations, often in twofold steps.

Consider `CN(C)c1cc(CNCC(C)(C)C)c(O)c2c1C[C@H]1C[C@H]3[C@H](N(C)C)C(O)=C(C(N)=O)C(=O)[C@@]3(O)C(O)=C1C2=O` (stereo in doubt) [Omadacycline], for which the “C. difficile vegetative cell proliferation” value in data set [1] (all three vessels) is listed as “no vegetative cell proliferation observed”. Besides, the “signs of simulated C. difficile infection” value in data set [1] (all three vessels) is “did not lead to any signs of simulated C. difficile infection”. Besides, the “C. difficile toxin detection (VERO cell cytotoxicity assay)” value in data set [1] (any vessels) is given as “No toxin was detected”. For the same compound, in data set [2], the “proportion of the absorbed omadacycline eliminated in the gut (biliary/fecal elimination pathway)” value is “approximately 60%”. Besides, the MIC90 is 0.06 µg/mL (≈ 0.108 µM) in data set [3] (read-out: MIC90); 0.06 µg/mL (≈ 0.108 µM) in data set [3] (replicate plate A, read-out: MIC90 Plate A); 0.06 µg/mL (≈ 0.108 µM) in data set [3] (replicate plate B, read-out: MIC90 Plate B); 0.06 µg/mL (≈ 0.108 µM) in data set [4] (read-out: MIC90 by broth dilution); 60 µg/mL (≈ 108 µM) in data set [4] (Wilkins-Chalgren broth, 48 hours anaerobic, read-out: Broth Microdilution MIC90). For the same compound, the MIC50 in data set [4] (Wilkins-Chalgren broth, 48 hours anaerobic) came out at 60 µg/mL (≈ 108 µM).

Usually MIC90 stands for an inhibitory concentration at the 90% level, which refers to growth in some studies and to a panel of isolates in others. Broadly, the MIC50 is the lowest concentration that inhibits either 50% of growth or 50% of the strains tested, depending on the study. A low value points to greater potency.
